Results: US20250263457A1, “Pharmaceutical Composition for Preventing and Treating Liver Disease Comprising Novel Peptide” (Pusan National University Industry-University Cooperation …, priority 2024, published 2025)

Tests used:
[1] = tested on: human pHSCs; assay: Cell survival of human pHSCs by MTS assay; assay type: cell-based; settings: 0, 20, 40, or 100 ng/ml; 24 and 48 hours; vs PBS control (FIG. 2B)
Protocol: 100 μl of human pHSCs (5×10^4 cells/ml) were seeded into 96 wells and cultured overnight. The cells were treated with peptide YJ at a concentration of 0, 20, 40, or 100 ng/ml and then further cultured. After 24 and 48 hours, cell survival for each cell was confirmed through MTS assay (Cell titer proliferation assay, G3580, Promega) (FIG. 2A). At this time, human pHSCs treated with PBS were used as a control group (vehicle).

[2] = tested on: human pHSCs; assay: Western blot of HSC activation/inactivation markers in human pHSCs; assay type: cell-based; settings: 40 ng/ml, vs control (FIG. 2C)
Protocol: To confirm the expression of cell activation markers, human pHSCs (5× 10^5 cells/ml) were treated with peptide YJ at a concentration of 20 or 40 ng/ml, and then proteins were extracted and subjected to Western blotting. At this time, as primary antibodies, anti-α-SMA antibody (Sigma-Aldrich, A5228), anti-GAPDH antibody (Bio-rad, MCA4739), anti-GFAP antibody (Dako, z0334), and anti-TFG-β antibody (Cell Signaling Technology, 3711) were used. In addition, as secondary antibodies, Goat anti-mouse IgG F(ab′) 2 antibody (HRP conjugate) (Enzo, ADI-SAB-100-J) and Goat anti-rabbit IgG antibody (HRP conjugate) (Enzo, ADI-SAB-300-J) were used.

[3] = tested on: CD44; assay: Western blot of CD44ICD in nuclear proteins of human pHSCs (CD44 cleavage); assay type: cell-based; settings: 40 ng/ml, 24 hours, vs control (FIG. 3A)
Protocol: Specifically, pHSCs were treated with peptide YJ (40 ng/ml) for 0, 6, 12, or 24 hours, and then nuclear proteins were isolated. Western blotting was performed on the isolated nuclear proteins to confirm the expression of CD44 and CD44ICD. The nuclear proteins were obtained by a nuclear protein fractionation method.
At this time, the primary antibodies were used with anti-CD44 antibody (Abcam, ab157107), anti-CD44ICD antibody (Cosmo Bio, KAL-KO601), and anti-LAMIN B1 antibody (Abcam, ab16048), and the secondary antibody was used with Goat anti-Rabbit IgG antibody (HRP conjugate) (Enzo, ADI-SAB-300-J). In addition, human pHSCs treated with PBS were used as a control group. The CD44 and CD44ICD expression results were normalized to the expression level of LAMIN B1, which was an internal control group, and expressed as mean±SEM values obtained from the same experiment repeated three times.

[4] = tested on: human pHSCs; assay: RT-qPCR and Western blot of fibrosis/activation markers in human pHSCs; assay type: cell-based; settings: 40 ng/ml, 24 and 48 hours, vs control (FIGS. 3C, 3D)
Protocol: In addition, after pHSCs were treated with peptide YJ for 24 and 48 hours by the same method as above, respectively, RNA and protein were extracted (whole lysate) and the expression of pHSCs activation markers was confirmed through RT-qPCR (FIG. 3C) and Western blot (FIG. 3D). Western blot was performed using the same method as in Example 2, and RNA extraction and RT-qPCR were performed as follows. At this time, human pHSCs treated with PBS were used as a control group.
First, total RNA was extracted from each cell using a Trizol solution (Invitrogen, 15596-026), and then the concentration and purity of RNA were confirmed using a nanodrop. Thereafter, complementary DNA (cDNA) was synthesized using the RNA as a template using the SuperScript First-strand Synthesis System (Invitrogen, 18064014). The cDNA synthesized by the method was used as sample DNA in quantitative real-time PCR (qPCR).
The quantitative real-time PCR (qPCR) was performed using Power SYBR Green Master Mix (Applied Biosystem), and the results were analyzed by a […] method. The qPCR results were analyzed for significance using Mean±SEM values of three independent experiments through one-way ANOVA followed by post hoc Tukey's test.

[5] = tested on: alcohol-related liver disease mouse model; assay: Liver size/weight and serum AST/ALT in alcohol-related liver disease mouse model; assay type: in vivo, C57BL/6 male mice
Protocol: To prepare alcohol-related liver disease mice, 8-week-old C57BL/6 male mice were fed with a Lieber DeCarli liquid diet (Dyets, 710260) containing 5% EtOH for 9 weeks, and then injected intraperitoneally with a vehicle (PBS) every other day along with feeding liquid diet for additional 3 weeks. As a control group for the EtOH diet, mice fed with a pair Lieber DeCarli liquid diet (Dyets, 710027) having the same total calories as the EtOH diet were used (FIG. 4A).
Specifically, 20 μl of mouse serum was mixed with 100 μl of a GOT buffer or GPT buffer, and then reacted at 37° C. Thereafter, the mixture was added with a 0.0198% 2,4-dinitrophenylhydrazine colorimetric solution (100 μl), and then further reacted at room temperature for 20 minutes. Thereafter, the mixture was added with 0.4 N NaOH (1 ml) to terminate the reaction, and absorbance (505 nm) was measured. The absorbance was expressed in international units per liter (IU/L).
The alcohol-related liver disease mouse model established by the method of Example 5.1 was administered vehicle (PBS) or peptide YJ (3.3 μg/kg) intraperitoneally every other day for three weeks, and then blood was collected and liver tissue was extracted to confirm the liver disease treatment effect of peptide YJ.
The weight and degree of tissue damage of the liver tissue extracted from the experimental mice of Example 5.3 were measured in the same manner as in Example 5.2.1.

[6] = 3.3 μg/kg i.p. every other day for three weeks, EtOH diet group, vs vehicle (FIG. 6C)

Question: For “peptide YJ: TSG-6 fragment: core domain RSGKYKLTYAEAKA plus C-terminal extension VCEFEGGHLATYKQLEAARKIGFHVCAAGWMAK (SEQ ID NO: 9); TSG-6 mimetic (RSGKYKLTYAEAKAVCEFEGGHLATYKQLEAARKIGFHVCAAGWMAK; peptide 4)”, which “cell survival and proliferation” value [1] is on record?
Answer: The value was “no changes in cell survival and proliferation were observed”.

Question: What about the “expression of GFAP (inactivation marker)” value [2] of the same substance?
Answer: Its value is “increased”.

Question: What about the “expression of activation markers of pHSCs” value [2] of the same substance?
Answer: Its value is “decreased”.

Question: What about the “nuclear expression and accumulation of CD44ICD” value [3] of the same substance?
Answer: Its value is “significantly reduced”.

Question: What about the “expression of COL1α1” value ([4]; RT-qPCR and Western blot) of the same substance?
Answer: The value was “decreased”.

Question: What about the “expression of CTGF” value ([4]; RT-qPCR and Western blot) of the same substance?
Answer: Its value is “decreased”.

Question: What about the “expression of TGF-β” value ([4]; RT-qPCR and Western blot) of the same substance?
Answer: Its value is “decreased”.

Question: What about the “expression of TIMP1” value ([4]; RT-qPCR and Western blot) of the same substance?
Answer: The value was “decreased”.

Question: What about the “expression of α-SMA” value ([4]; RT-qPCR and Western blot) of the same substance?
Answer: The value was “decreased”.

Question: What about the “expression of GFAP (inactivation marker of pHSCs)” value [4] of the same substance?
Answer: The value was “increased”.

Question: And the “serum ALT level” value [5, 6]?
Answer: Its value is “decreased”.

Question: And the “serum AST level” value [5, 6]?
Answer: The value was “decreased”.

Question: And the “size and weight of the liver tissue” value ([5]; 3.3 μg/kg intraperitoneally every other day for three weeks, between groups (FIGS. 6A, 6B))?
Answer: Its value is “did not show statistically significant differences”.
